Columns and labels:
Assay type in all cases: cell-based, human
[1] = tested on: mRNA reporters containing different number of stop codons and/or MS2 elements; assay: Stop codon editing assay by Western blot; conditions: HEK293FT cells; reporters with different numbers of stop codons and RNA elements
Source text: HEK 293 FT cells were co-transfected with plasmids expressing the reporter containing 2 UAG stop codons in the hairpin and a pcDNA3 construct encoding a fusion protein composed of MCP, ADAR2-DD (E488Q), and TagBFP.

[2] = tested on: Non-Stop-Decay reporter construct; assay: Non-stop decay OFF-switch reporter (dTomato-BiCMV-EGFPd2); conditions: biCMV reporter with 2 UAG stop codons; 48-hours post-transfection
Source text: In order to do so, the inventors designed a synthetic transcript (FIG. 2A) where there is an open reading frame (green), 1 or more stop codons in an RNA-hairpin (dark gray), a specific RNA element (light gray), and a 3′UTR with no downstream stop codons prior to the polyadenylate (polyA) tail. The inventors created a reporter plasmid that contained a bidirectional CMV driving the expression dTomato on one transcript and EGFPd2, an editable stop codon, an MS2 operator, and a mutated rabbit-β-globin 3′UTR/poly A signal sequence lacking additional stop codons on the other transcript (FIG. 2B). In the absence of ADAR-DD activity, both dTomato and EGFPd2 should be translated and expressed. However, coexpression of MCP-ADAR2 should lead to editing of the only in-frame stop codon and the initiation of an endogenous process called non-stop decay, whereby the translating ribosome stalls on the polyA-tail and recruits Ski7 followed by exonucleases to destroy the mRNA (FIG. 2C). In this process, proteosomal degradation of the nascent, unreleased polypeptide also occurs. […]
As a final test, the inventors used the MS1(117A)/Mcl-1 variant with the dTomato-BiCMV-EGFPd2 reporter plasmid (FIG. 2B), which should lose EGFPd2 fluorescence with ADAR editing of the final stop codon.

GFP-GPI reporter = assay: AUA to AUI editing creating upstream in-frame signal sequence and HA tag, live imaging and HA staining
Source text: To test this, a reporter construct was designed that contained: an MS2-A editable AUA start codon upstream of the murine IgGκ signal sequence and HA epitope tag (SS-HA), an in frame AUG start codon, GFP, and the glycosylphosphatidylinositol (GPI) anchor sequence from Thymocyte differentiation antigen 1 (GPI in diagram) (see e.g., FIG. 27a). With this reporter, in the absence of editing, the majority of the translated product will be from the AUG codon directly upstream of GFP. This will lead to the translation product residing in the cytoplasm with a non-functional GPI anchor (as this post-translational modification (PTM) must occur in the endoplasmic reticulum (ER) lumen). Upon ADAR editing of the upstream AUA to AUI, translation will initiate upstream of the signal sequence, leading to co-translational translocation of HA-GFP-GPI into the ER lumen, the addition of the GPI anchor PTM, and presentation of HA-GFP on the plasma membrane (see e.g., FIG. 27b). With this construct, the editing can be monitored by either by microscopy (looking for ER & plasma membrane localization) or directly by immunostaining for the HA-tag.
HEK cells were co-transfected with the GFP-GPI reporter and either filler DNA, MCP-dADAR, or MCP-ADAR. A GFP-GPI with a functional start codon before the secretion signal was also transfected as a positive control (GFP-GPI Control). One day after transfection, HEK cells were imaged live, and then fixed and stained for HA tag with a primary anti-HA antibody and a secondary antibody that was conjugated to ALEXAFLUOR 647 (AF647).

editable AUG reporters = assay: Destruction of an AUG start codon to IUG, EGFPd2/dTomato reporter, flow cytometry; conditions: 48 hours post-transfection; n=3
Source text: To test this, an ADAR substrate was designed similar to the substrates tested above, but with an AUG codon in a dsRNA hairpin with a mismatch to promote the deamination of the correct adenine (see e.g., FIG. 28b). This scheme was similarly tested with both the high affinity MS2-C and lower affinity MS2-A variants by cloning these substrates into a pcDNA3 vector with a bidirectional CMV driving the expression of dTomato and EGFPd2 (see e.g., FIG. 28c).
HEK cells were co-transfected with the two different reporter constructs (MS2-C and MS2-A) and cither filler DNA, MCP-dADAR, or MCP-ADAR. 48 hours post-transfection, cells were lifted and analyzed by flow cytometry. Transfected cells were gated by dTomato, and the median EGFPd2-to-dTomato ratio for the population was calculated per replicate (n=3) by FLOWJO. 2-Way ANOVA was performed to determine significance.

T2A (G18R) construct = assay: Sense codon editing (AGG to IGG) of T2A (G18R), UAS-H2B-mCherry reporter cells, flow cytometry; conditions: 30 ng ADAR construct, n=3
Source text: To test inducible ADAR recoding of a protein's amino acid composition, a construct was designed that contained: a CD8 signal peptide, an HA epitope tag, the self-labeling Halo Tag, a mutant variant of the thosea asigna virus 2A self-cleaving peptide that is defective for ribosome skipping (Gly 18Arg mutation), the DNA binding domain of Gal4, and a 4× repeat of the transcriptional activation domain from herpes virus (VP64) (see e.g., FIG. 37a). The penultimate glycine in 2A peptides is invariant (see e.g., FIG. 37b) and any mutation leads to defective ribosome skipping. The codon for the G18R residue (AGG) is in a dsRNA hairpin with the high affinity MS2-C motif, which acts as a substrate for targeted MCP-ADAR. In the absence of ADAR editing, the defective T2A sequence will lead to the topological sequestering of the Gal4-VP64 transcription factor in the ER lumen due to the fusion to the secreted HaloTag (see e.g., FIG. 37c). Upon ADAR editing of the Arg18 codon to glycine (AGG to IGG), the T2A regains the function of ribosome skipping. This leads to the protein domains downstream of the T2A sequence to be translated as a separate polypeptide in the cytoplasm, whereby the GAL4-VP64 transcription factor translocate to the nucleus and turn on the expression of a fluorescent H2B-mCherry reporter (see e.g., FIG. 37c).
To test this, an in-house clonal HEK293FT cell line that contains an integrated UAS-H2B-mCherry reporter was co-transfected with the editable T2A (also called T2A*) construct (3 ng, 0.3 ng and 0.03 ng) and cither MCP-dADAR or MCP-ADAR (30 ng). A GAL4-VP64 positive control was also transfected into HEK cells. One day post-transfection, cells were lifted and analyzed by flow cytometry. Transfected cells were gated by TagBFP, the median H2B-mCherry fluorescence for the population was calculated and H2B-mCherry positive populations within the transfected cells were determined by the percentage of cells above 0.5% of non-transfected control cells per replicate (n=3) by FLOWJO.

## MCP-linker-ADAR2(E488Q)-TagBFP [MCP-ADAR]
[1]
  off-target editing of stop-codon reporters, Western blot (HA-mNeonGreen): Almost no off-target editing
[2]
  EGFPd2 expression relative to catalytically inactive DD, fluorescence microscopy: greatly decreased EGFPd2 expression levels
GFP-GPI reporter; fixed, permeabilized, anti-HA and AF647 secondary
  HA tag staining of cells with AUA construct: robust staining
GFP-GPI reporter; one day after transfection
  cellular distribution of GFP from AUA-SS-GFP-GPI, live imaging: looked very similar
Editable AUG reporters
  relative EGFPd2 levels, active vs inactive ADAR, MS2-A based AUG construct: further, significant decrease in relative EGFPd2 levels
  translational efficiency, MS2-A based AUG construct: significant decrease in translational efficiency
T2A (G18R) construct; 0.03 ng T2A* construct
  population expressing any H2B-mCherry compared to dADAR, 0.03 ng T2A*: significantly higher
T2A (G18R) construct; 0.3 ng T2A* construct
  population expressing any H2B-mCherry compared to dADAR, 0.3 ng T2A*: significantly higher
T2A (G18R) construct; 3 ng T2A* construct, one day post-transfection
  median H2B-mCherry expression compared to inactive MCP-dADAR control: significant increase

Reference: US12565665B2, “Compositions and methods for controlled mRNA translation and stability” (TRUSTEES OF BOSTON UNIVERSITY, priority 2022, dated 2026)
